In PMC7127030 (Bioorganic & Medicinal Chemistry Letters, 2009):

How the values were obtained:
[1] = target: T1, SCV Hel duplex DNA-unwinding activity (Severe acute respiratory syndrome coronavirus, UniProt P0C6X7); assay type: biochemical, SARS coronavirus
[2] = target: T1, SCV Hel duplex DNA-unwinding activity; settings: read-out: IC50 SCV Hel duplex DNA-unwinding; cited from earlier work

| Structure (SMILES) | inhibition of helicase duplex DNA-unwinding activity [1] | IC50 [2] [nM] |
| --- | --- | --- |
| O=C(O)/C(O)=C/C(=O)c1ccc(OCc2ccc(Cl)cc2)cc1 [Compound 2] | neither 2 nor 3 showed inhibition |  |
| O=C(O)/C(O)=C/C(=O)c1cccc(OCc2ccccc2)c1 [Compound 3] | neither 2 nor 3 showed inhibition |  |
| COc1cc(C23OC4(O)CC(O)(CC(O)(C4)O2)O3)ccc1O [vanillinbananin] |  | 2700 |
